Key:
[1] = Aqueous solubility (slurry ca. 24 hours, filtered, HPLC-UV); type: physicochemical; conditions: aqueous buffer, thermodynamic from solid
Protocol: Aqueous solubility was measured using the following protocol. Slurries of genistein and of crystalline genistein sodium dihydrate salt were made up in aqueous media in which pH was set at 4.5, 6.7, and 7.5, each slurry was shaken at ambient temperature for ca. 24 hours and then filtered using a 0.2 μm filter into a clean vial. The saturated solutions were then diluted and analyzed for API (genistein) content using N—Ac-DL-Methionine on a Chirobiotic T HPLC column and UV detector set at λmax=270 nm. The mobile phase was acetonitrile/water run in isocratic mode over a 30 minute period. The results are presented in Table 3, (BDL=below detection limits).
The aqueous solubility of crystalline genistein potassium salt dihydrate was measured using the protocol described in Example 1.7. Table 16 compares the aqueous solubilities of crystalline genistein potassium salt dihydrate with that of genistein.

[2] = Gravimetric vapor sorption (GVS); type: physicochemical; conditions: for maximum of water adsorbed (GVS): 0-90% RH sorption cycle; for moisture change (GVS): between 20 and 70 RH % (typical working range of material)
Protocol: Approximately 15 mg of sample was placed into a wire-mesh vapor sorption balance pan and loaded into an SMS intrinsic vapor sorption balance supplied (Surface Measurement Systems Instruments). The sample was then dried by maintaining a 0% humidity environment until no further weight change was recorded. Subsequently, the sample was then subjected to a ramping profile from 0-90% RH at 10% RH increments, maintaining the sample at each step until equilibration had been attained (99.5% step completion). Upon reaching equilibration, the % RH within the apparatus was ramped to the next step and the equilibration procedure repeated. After completion of the sorption cycle, the sample was then dried using the same procedure. The weight change during the sorption/desorption cycles were then monitored, allowing for the hygroscopic nature of the sample to be determined.

[3] = Disproportionation study (slurry in distilled water ca. 48 hours, XRPD, pH of supernatant); type: physicochemical; conditions: slurried in distilled water for ca. 48 hours
Protocol: (§1) A 50 mg sample of crystalline genistein sodium salt dihydrate was slurried in 250 μL distilled water for ca. 48 hours and then checked by XRPD for disproportionation. The pH of the supernatant was also measured using a Corning 240 pH meter. […] The pH of the supernatant after slurrying was 7.1.
as §1, with “A” for “A 50 mg”, “potassium” for “sodium”, “in” for “in 250 μL”, “liquid” for “after slurrying”, “7.3 indicating no disproportionation.” for “7.1.”

[4] = Comparative pharmacokinetic study of genistein and crystalline genistein sodium salt dihydrate, intraduodenal and intravenous; conditions: rats
Protocol: (§2) Genistein and crystalline genistein sodium salt dihydrate were stored at room temperature under desiccant and protected from light. The dosing solutions were prepared fresh from powders on the day of dosing. The dosing solution for intravenous administration (IV) was prepared at 1 mg/mL (free acid) in 50:50 DMSO:saline. The dosing solutions for intraduodenal administration (ID) were prepared at 2 mg/mL (genistein free acid) in a 0.2% sodium carboxymethyl cellulose (Na CMC) solution in water.
(§3) The pharmacokinetics of genistein was evaluated in fasted male Sprague-Dawley rats. Each animal was fitted with a jugular vein cannula (JVC) for blood sampling. Animals intended for intravenous dosing were fitted with an additional JVC for dose administration. Animals intended for intraduodenal dosing were fitted with an intraduodenal cannula (IDC) for dose administration. Surgically modified animals were housed one per cage. All animals were supplied with a commercial rodent diet (LabDiet, Certified Rodent Diet #5002) ad libitum prior to study initiation. […]
(§4) Each blood sample was collected from the rats via a jugular vein cannula and placed into chilled polypropylene tubes containing sodium heparin as an anticoagulant. […] The total concentration of genistein in plasma samples were analyzed by LC-MS/MS after an overnight incubation with glucuronidase/arylsulfatase enzyme mixture. Pharmacokinetic parameters were calculated using the WinNonlin software.
(§5) An LC-MS/MS analytical method for the determination of genistein in rat plasma was developed. Prior to sample analysis, a standard curve was analyzed to determine the specificity, range, and linearity of the method. Total genistein in plasma samples was determined by pre-treating all samples with β-glucuronidase/arylsulfatase enzymes and incubating prior to analysis. […]
(§6) Individual plasma concentrations versus time data for genistein were subjected to non-compartmental analysis using the pharmacokinetic program WinNonlin v. […] Plasma concentrations below the limit of quantitation (10 ng/mL) were assigned a value of zero for PK analysis only.

[5] = SuperSol 1000 kinetic and equilibrium solubility assay
Protocol: Since both compounds form suspensions in pure deionized H2O, physicochemical properties were assessed from solutions of 100% EtOH as well as mixtures of dH2O and EtOH, specifically, EtOH 50/50 (vol/vol) and EtOH/dH2O 75/25 (vol/vol) according to European Pharmacopeia guidelines 01/2008, Section 2.9.3., Table 2.9.3.5. • The following parameters were measured: • t[MSS] defined as: Time from start of analysis to Maximum Solubilization Speed (min) • C[MSS] defined as: Early kinetic solubility as expressed as concentration at Maximum Solubilization Speed (mg×I^−1) • C[Eq] defined as: Late kinetic solubility as expressed as concentration at Equilibrium Kinetic Solubility (mg×I^−1) • t[Eq] defined as: Time from start of analysis to Equilibrium Kinetic solubility (min) • ΔC [CEq−CMSS] defined as: Difference in concentration between Early and Late Kinetic Solubility as defined above (mg×I^−1) • Δt [CEq−CMSS] defined as: Difference in time between Early and Late Kinetic Solubility endpoints (min) • MSS defined as: Maximum Solubility Speed defined by C[MSS]/t[Mss] (mg×I^−1×min^−1) • ISI defined as: Intrinsic Solubility Index defined by ΔC [CEq−CMSS]/Δt [CEq−CMSS] • The higher the ISI value, the faster the solubilization and the stronger the relative contribution of the late, intrinsic kinetic equilibrium solubility C[Eq]. • KSR defined as: Kinetic Solubility ratio given by C[MSS]/C[Eq]. • The KSR is the numerical ratio indicator of the relative contribution of the early kinetic Solubility to the Overall Late Kinetic Equilibrium Solubility. The higher the KSR Value, the stronger the relative contribution of the early kinetic solubility C[MSS].

[6] = Solubility in different organic solvents (aliquot addition until dissolution); type: physicochemical
Protocol: Solubility in different organic solvents was measured using the following protocol. Approximately 25 mg portions of genistein and crystalline genistein sodium dihydrate salt were placed in 48 different vials, separately. 5 volume aliquots of each solvent were added exclusively to a vial. Between each addition, the mixture was checked for dissolution and if no dissolution was apparent, the procedure was continued until dissolution was observed or when 50 volumes had been added.

[7] = male, Sprague-Dawley, rat, in vivo
Protocol: as §2, §3, §4, §5, §6

[8] = Stability study (80° C., 40° C./75 RH %, light; XRPD after 7 days); conditions: 40° C./75 RH % for 7 days
Protocol: Sample stability was tested at 80° C. for 7 days and at 40° C./75 RH % for 7 days. Observations such as color change were noted after 7 days and XRPD of samples were taken after 7 days to investigate any solid form change.

Work on `O.O.O=c1c(-c2ccc(O)cc2)coc2cc(O)cc(O)c12.[K]` [genistein potassium salt dihydrate] yielded a solubility at 24 h ([1]; Water/slurry pH 4.5, ambient temperature) of 40 µg/mL, a solubility at 24 h ([1]; Water/slurry pH 6.7, ambient temperature) of 57 µg/mL and a solubility at 24 h ([1]; Water/slurry pH 7.5, ambient temperature) of 69 µg/mL. The “maximum of water adsorbed (GVS)” value [2] was 16 wt %, the “moisture change (GVS)” value [2] was “ca. 3%” and the “disproportionation (XRPD)” value [3] was “No signs of disproportionation”. The “pH of the supernatant after slurrying” value [3] was 7.3.

In the case of `O.O.O=c1c(-c2ccc(O)cc2)coc2cc(O)cc(O)c12.[Na]` [genistein sodium salt dihydrate], the “time after ID dosing at which maximum plasma concentration (Cmax) was observed” value ([4]; intraduodenal dosing, mean plasma profile (FIG. 13)) is reported as at most 15 min, the “pharmacokinetic profile following IV dosing, compared with genistein” value ([4]; intravenous 1 mg/kg) is reported as “not significantly different” and the “C[Eq]” value ([5]; EtOH 100%) is reported as 11.20 mg×I^−1. For the same compound, the “C[MSS]” value ([5]; EtOH 100%) was 10.85 mg×I^−1, the ISI ([5]; EtOH 100%) was 0.07 and the KSR ([5]; EtOH 100%) was 0.97. For the same compound, the “KSR, assessment in words” value ([5]; EtOH 100%) was “excellent”, the MSS ([5]; EtOH 100%) was 36.90 mg×I^−1×min^−1 and the “MSS, assessment in words” value ([5]; EtOH 100%) was “excellent”. The “ΔC [C, − CMSS]” value ([5]; EtOH 100%) was 0.35 mg×I^−1, the “C[Eq]” value ([5]; EtOH/dH2O 50/50 (vol/vol)) was 17.40 mg×I^−1 and the “C[MSS]” value ([5]; EtOH/dH2O 50/50 (vol/vol)) was 14.67 mg×I^−1. The ISI ([5]; EtOH/dH2O 50/50 (vol/vol)) was 0.60, the KSR ([5]; EtOH/dH2O 50/50 (vol/vol)) was 0.84 and the “KSR, assessment in words” value ([5]; EtOH/dH2O 50/50 (vol/vol)) was “excellent”. For the same compound, the MSS ([5]; EtOH/dH2O 50/50 (vol/vol)) was 20.66 mg×I^−1×min^−1, the “MSS, assessment in words” value ([5]; EtOH/dH2O 50/50 (vol/vol)) was “excellent” and the “ΔC [CEq − CMSS]” value ([5]; EtOH/dH2O 50/50 (vol/vol)) was 2.73 mg×I^−1. The “C[Eq]” value ([5]; EtOH/dH2O 75/25 (vol/vol)) was 15.86 mg×I^−1, the “C[MSS]” value ([5]; EtOH/dH2O 75/25 (vol/vol)) was 11.20 mg×I^−1 and the ISI ([5]; EtOH/dH2O 75/25 (vol/vol)) was 1.26. The KSR ([5]; EtOH/dH2O 75/25 (vol/vol)) was 0.71, the “KSR, assessment in words” value ([5]; EtOH/dH2O 75/25 (vol/vol)) was “excellent” and the MSS ([5]; EtOH/dH2O 75/25 (vol/vol)) was 37.33 mg×I^−1×min^−1. The “MSS, assessment in words” value ([5]; EtOH/dH2O 75/25 (vol/vol)) was “excellent”, the “ΔC [CEq − CMSS]” value ([5]; EtOH/dH2O 75/25 (vol/vol)) was 4.66 mg×I^−1 and the Solubility ([6]; 1,4-dioxane) was under 10.6 mg/mL. For the same compound, the Solubility ([6]; Acetone/IPA (50:50)) was 20.2 mg/mL, the Solubility ([6]; Acetonitrile (MeCN)) was under 10.4 mg/mL and the Solubility ([6]; Cyclohexane) was under 10.9 mg/mL. It also gave a Solubility ([6]; Dichloromethane (DCM)) of under 10.8 mg/mL, a Solubility ([6]; Diisopropylether (DIPE)) of under 9.7 mg/mL and a Solubility ([6]; Heptane) of under 9.9 mg/mL. It also gave a Solubility ([6]; Methanol (MeOH)) of under 8.8 mg/mL, a Solubility ([6]; Methyl isobutyl ketone (MIBK)) of under 9.0 mg/mL and a Solubility ([6]; Octanol) of under 11 mg/mL. It also gave a Solubility ([6]; Tetrahydrofuran (THF)) of under 10.4 mg/mL, a Solubility ([6]; Toluene) of under 9.9 mg/mL and a Solubility ([6]; Toluene/Dioxane (50:50)) of under 9.7 mg/mL. The “mean peak plasma concentration (Cmax) fold higher compared to genistein” value [7] was 4.2 fold, the “maximum of water adsorbed (GVS)” value [2] was 45 wt % and the “moisture change (GVS)” value [2] was “ca. 2%”. The “disproportionation (XRPD)” value [3] was “No signs of disproportionation” and the “pH of the supernatant after slurrying” value [3] was 7.1.

In the case of `O=c1c(-c2ccc(O)cc2)coc2cc(O)cc(O)c12.[K]` [genistein potassium salt], the “stability, solid form change by XRPD” value [8] is reported as “crystallizes to form genistein potassium salt dihydrate”.

For `O=c1c(-c2ccc(O)cc2)coc2cc(O)cc(O)c12` [Genistein, 4′,5,7-trihydroxyisoflavone-5,7-dihydroxy-3-(4-hydroxyphenyl)-4H-1-benzopyran-4-one, reference compound], the “C[Eq]” value ([5]; EtOH 100%) was 13.79 mg×I^−1, the “C[MSS]” value ([5]; EtOH 100%) was 5.81 mg×I^−1 and the ISI ([5]; EtOH 100%) was 2.11. For the same compound, the KSR ([5]; EtOH 100%) was 0.42, the “KSR, assessment in words” value ([5]; EtOH 100%) was “acceptable” and the MSS ([5]; EtOH 100%) was 23.81 mg×I^−1×min^−1. For the same compound, the “MSS, assessment in words” value ([5]; EtOH 100%) was “good”, the “ΔC [C, − CMSS]” value ([5]; EtOH 100%) was 7.98 mg×I^−1 and the “C[Eq]” value ([5]; EtOH/dH2O 50/50 (vol/vol)) was 12.87 mg×I^−1. For the same compound, the “C[MSS]” value ([5]; EtOH/dH2O 50/50 (vol/vol)) was 7.43 mg×I^−1, the ISI ([5]; EtOH/dH2O 50/50 (vol/vol)) was 1.55 and the KSR ([5]; EtOH/dH2O 50/50 (vol/vol)) was 0.58. For the same compound, the “KSR, assessment in words” value ([5]; EtOH/dH2O 50/50 (vol/vol)) was “acceptable”, the MSS ([5]; EtOH/dH2O 50/50 (vol/vol)) was 12.18 mg×I^−1×min^−1 and the “MSS, assessment in words” value ([5]; EtOH/dH2O 50/50 (vol/vol)) was “good”. For the same compound, the “ΔC [CEq − CMSS]” value ([5]; EtOH/dH2O 50/50 (vol/vol)) was 5.44 mg×I^−1, the “C[Eq]” value ([5]; EtOH/dH2O 75/25 (vol/vol)) was 14.03 mg×I^−1 and the “C[MSS]” value ([5]; EtOH/dH2O 75/25 (vol/vol)) was 8.52 mg×I^−1. For the same compound, the ISI ([5]; EtOH/dH2O 75/25 (vol/vol)) was 1.49, the KSR ([5]; EtOH/dH2O 75/25 (vol/vol)) was 0.61 and the “KSR, assessment in words” value ([5]; EtOH/dH2O 75/25 (vol/vol)) was “good”. For the same compound, the MSS ([5]; EtOH/dH2O 75/25 (vol/vol)) was 19.67 mg×I^−1×min^−1, the “MSS, assessment in words” value ([5]; EtOH/dH2O 75/25 (vol/vol)) was “good” and the “ΔC [CEq − CMSS]” value ([5]; EtOH/dH2O 75/25 (vol/vol)) was 5.51 mg×I^−1. The Solubility ([6]; 1,4-dioxane) was under 10.3 mg/mL, the Solubility ([6]; Acetone/Water (50:50)) was under 10.1 mg/mL and the Solubility ([6]; Acetonitrile (MeCN)) was under 10.1 mg/mL. The Solubility ([6]; Cyclohexane) was under 10.7 mg/mL, the Solubility ([6]; Dichloromethane (DCM)) was under 10.3 mg/mL and the Solubility ([6]; Diisopropylether (DIPE)) was under 10.6 mg/mL. It also gave a Solubility ([6]; Ethanol (EtOH)) of under 10.8 mg/mL, a Solubility ([6]; Methanol (MeOH)) of under 10.6 mg/mL and a Solubility ([6]; Methyl acetate (MeOAc)) of under 10.3 mg/mL. The Solubility ([6]; Methyl isobutyl ketone (MIBK)) was under 10.1 mg/mL, the Solubility ([6]; Methylethyl ketone (MEK)) was under 10.8 mg/mL and the Solubility ([6]; Toluene) was under 10.1 mg/mL. For the same compound, the Solubility ([6]; Toluene/Dioxane (50:50)) was under 10.1 mg/mL.
